Key:
[1] = system: conscious, male hypertensive Dahl salt-sensitive rats; assay: Acute effects on MAP and HR by telemetry in Dahl salt-sensitive rats; type: in vivo, rat; settings: Dahl-S rats
Description: The acute effects of ACT-132577 on blood pressure, in particular on mean arterial blood pressure (hereafter “MAP”), and heart rate (hereafter “HR”) can be evaluated by means of telemetry in conscious, male hypertensive Dahl salt-sensitive rats (hereafter “Dahl-S rats”—see details about this model in Rapp, Hypertension (1982), 4, 753-763). Elevated blood pressure is induced in Dahl-S rats by providing 1% sodium chloride in drinking water. Groups of 6-7 Dahl-S rats are used for the vehicle (7.5% gelatin aqeuous solution) and each dose of ACT-132577 tested (0.3, 1, 3, 10, 30, 100, and 300 mg/kg). Effects of ACT-132577 on HR and MAP are calculated for individual animals relative to the 24 h period before administering. The results obtained regarding MAP (maximal MAP decrease observed over 6 consecutive hours) are summarised in FIG. 3 (data are presented as mean±standard error of the mean). […] In contrast to MAP, HR was not affected.

[2] = system: conscious, male hypertensive deoxycorticosterone acetate salt rats; assay: Acute effects of Exforge HCT alone or with ACT-132577 or spironolactone in DOCA-salt rats; type: in vivo, rat
Description: Res. (1975), 36, 300-309). In the DOCA-salt rats, hypertension is induced by the combination of unilateral nephrectomy, implantation of pellets of the mineralocorticoid analog DOCA, and provision of 1% sodium chloride in drinking water. 7-9 DOCA-salt rats per treatment group are used for this test. The results obtained regarding MAP are summarised in FIGS. 17 and 18 wherein each data point is presented as a 6-hour mean.

[3] = system: male Wistar rats; assay: Effect on fluid retention: haematocrit in Wistar rats; type: in vivo, rat; settings: single oral dose 1-30 mg/kg, 24 hours after administration
Protocol: A decrease in haematocrit (Hct) or haemoglobin occurs secondary to an increase in plasma volume and can be used as a marker of fluid retention. A single oral dose of ACT 132577 (1-30 mg/kg) or vehicle (gelatin) is administered by gavage to male Wistar rats. Twenty-four hours after administration, sublingual blood was sampled under isoflurane-induced anesthesia. Haematocrit is measured using a hematology analyser.

[4] = system: conscious, male spontaneaously hypertensive rats; assay: Acute effects on MAP and HR by telemetry in SHRs; type: in vivo, rat
Protocol: The acute effects of ACT-132577 on blood pressure, in particular on mean arterial blood pressure (hereafter “MAP”), and heart rate (hereafter “HR”) can be evaluated by means of telemetry in conscious, male spontaneaously hypertensive rats (hereafter “SHRs”—see details about this model in Atanur et al., Genome Res. (2010), 20, 791-803). Groups of 4-6 SHRs are used for the vehicle (7.5% gelatin aqeuous solution) and each dose of ACT-132577 tested (1, 3, 10, 30, 100, and 300 mg/kg). Effects of ACT-132577 on HR and MAP are calculated for individual animals relative to the 24 h period before administering. The results obtained regarding MAP (maximal MAP decrease observed over 6 consecutive hours) are summarised in FIG. 5 (data are presented as mean±standard error of the mean). […] In contrast to MAP, HR was not affected.

[5] = system: conscious, male spontaneaously hypertensive rats; assay: Acute effects of Exforge HCT alone or with ACT-132577 or spironolactone in SHRs; type: in vivo, rat
Protocol: The acute effects of Exforge HCT® (i.e. a fixed dose combination of valsartan/amlodipine/hydrochlorothiazide; dosage adapted for 1.6 mg/kg/0.1 mg/kg/0.25 mg/kg for valsartan/amlodipine/hydrochlorothiazide, respectively) on blood pressure, in particular on mean arterial blood pressure (hereafter “MAP”), and heart rate (hereafter “HR”) in combination with ACT-132577 or spironolactone can be evaluated by means of telemetry in conscious, male spontaneaously hypertensive rats (hereafter “SHRs”—see details about this model in Atanur et al., Genome Res. (2010), 20, 791-803).
9 SHRs per treatment group are used for this test. To match the maximal effect on blood pressure of co-administereds drug in this model, aprocitentan 100 mg/kg is administrated orally on the 3rd day following 3-day oral administration of Exforge HCT® mg/kg and spironolactone 300 mg/kg is co-administered orally with Exforge HCT® on the 1st day followed by 2 days of Exforge HCT® administration. The results obtained regarding MAP are summarised in FIGS. 15 and 16 wherein each data point is presented as a 6-hour mean.

[6] = system: conscious, male hypertensive deoxycorticosterone acetate salt rats; assay: Acute effects on MAP and HR by telemetry in DOCA-salt rats; type: in vivo, rat
Description: The acute effects of ACT-132577 on blood pressure, in particular on mean arterial blood pressure (hereafter “MAP”), and heart rate (hereafter “HR”) can be evaluated by means of telemetry in conscious, male hypertensive deoxycorticosterone acetate salt rats (hereafter “DOCA-salt rats”—see details about this model in Gavras et al., Circ. Res. (1975), 36, 300-309). In the DOCA-salt rats, hypertension is induced by the combination of unilateral nephrectomy, implantation of pellets of the mineralocorticoid analog DOCA, and provision of 1% sodium chloride in drinking water. Groups of 6-11 DOCA-salt rats are used for the vehicle (7.5% gelatin aqeuous solution) and each dose of ACT-132577 tested (0.3, 1, 3, 10, 30, 100, and 300 mg/kg). Effects of ACT-132577 on HR and MAP are calculated for individual animals relative to the 24 h period before administering. The results obtained regarding MAP (maximal MAP decrease observed over 6 consecutive hours) are summarised in FIG. 4 (data are presented as mean±standard error of the mean). […] In contrast to MAP, HR was not affected.

[7] = system: conscious, male hypertensive deoxycorticosterone acetate salt rats; assay: Chronic effects of ACT-132577 in DOCA-salt rats; type: in vivo, rat
Description: Res. (1975), 36, 300-309). In the DOCA-salt rats, hypertension is induced by the combination of unilateral nephrectomy, implantation of pellets of the mineralocorticoid analog DOCA, and provision of 1% sodium chloride in drinking water. The results of the DOCA-salt rats treated with ACT-132577 can be compared to those obtained for Wistar rats or for DOCA-salt rats that received only the vehicle (4% gelatin aqueous solution).

[8] = in comparison to corresponding alkylated derivatives; cited from earlier work
[9] = system: Spontaneously hypertensive rats (SHR); assay: Blood pressure by telemetry in SHR, SGLT-2 inhibitor alone or in combination with ACT-132577; type: in vivo, rat
Description: Spontaneously hypertensive rats (SHR) are instrumented micro-surgically with a telemetry pressure transmitter implanted in the peritoneal cavity (Data Science International, Minnesota, USA) under isoflurane-induced narcosis. In brief, the pressure catheter is inserted into the aorta, below the renal artery pointing upstream. The abdomen is closed and the transmitter sutured to the abdominal musculature. Blood pressure is collected continuously using the Dataquest ART Platinum acquisition system (version 4.36). Drugs (ACT-132577 or SGLT2 inhibitors) or vehicle are administered by gavage (n=4-7 per group) alone or in combination. Systolic, mean and diastolic arterial pressures, and heart rate are collected at 5-minute intervals until the blood pressure curve comes back to baseline.
Because it takes several days for the SGLT2 inhibitors to exert an effect on blood pressure, rats are treated first for 12 days with either vehicle (5 ml/kg/day), or canagliflozin (30 mg/kg/day) or empagliflozin (30 mg/kg/day), then ACT-132577 (30 mg/kg/day) is co-administered for 3 additional days.

[10] = chronic oral administration, DOCA-salt rats
[11] = oral, 1, 10 and 100 mg/kg/day for 4 weeks

NS(=O)(=O)Nc1ncnc(OCCOc2ncc(Br)cn2)c1-c1ccc(Br)cc1 [ACT-132577, {5-(4-bromo-phenyl)-6-[2-(5-bromo-pyrimidin-2-yloxy)-ethoxy]-pyrimidin-4-yl}-sulfamide]
Heart rate (HR) [1]: not affected | MAP decrease (maximal MAP decrease observed over 6 consecutive hours) ([1]; 10 mg/kg, mean±SEM): 19±4 mm Hg | Blood pressure when added on top of Exforge HCT ([2]; aprocitentan 10 mg/kg or spironolactone 300 mg/kg, single oral doses): further reduced blood pressure | Blood pressure reduction compared with spironolactone, on top of Exforge HCT ([2]; aprocitentan 10 mg/kg vs spironolactone 300 mg/kg): greater blood pressure reduction than spironolactone | Haematocrit (Hct), marker of fluid retention [3]: did not impact | Heart rate (HR) [4]: not affected | MAP decrease (maximal MAP decrease observed over 6 consecutive hours) ([4]; 100 mg/kg, mean±SEM): 18±4 mm Hg | Blood pressure when added on top of Exforge HCT ([5]; aprocitentan 100 mg/kg or spironolactone 300 mg/kg oral): further reduced blood pressure | Blood pressure reduction compared with spironolactone, on top of Exforge HCT ([5]; aprocitentan 100 mg/kg vs spironolactone 300 mg/kg): greater blood pressure reduction than spironolactone | Heart rate (HR) [6]: not affected | MAP decrease (maximal MAP decrease observed over 6 consecutive hours) ([6]; 10 mg/kg, mean±SEM): 29±6 mm Hg | Left ventricular hypertrophy [7, 10]: tended to decrease | Plasma concentrations of N-terminal pro-brain natriuretic peptide (NTproBNP) [7, 10]: dose-dependent decrease | Renal blood flow [7, 10]: dose-dependently increased | Renal vascular resistance [7, 10]: decreased | DOCA-salt-induced increase in MAP [7, 11]: dose-dependently attenuated | Heart rate (HR) [7, 11]: without changing HR | Clearance in vivo [8]: much shorter | Half-life in vivo [8]: much longer | Further decrease of blood pressure (MAP) on top of canagliflozin ([9]; ACT-132577 30 mg/kg/day for 3 days after 12 days canagliflozin 30 mg/kg/day): −14±1 mmHg | Further decrease of blood pressure (MAP) on top of empagliflozin ([9]; ACT-132577 30 mg/kg/day for 3 days after 12 days empagliflozin 30 mg/kg/day): −18±3 mmHg | Decrease in blood pressure (MAP) on top of vehicle, without canagliflozin ([9]; ACT-132577 30 mg/kg/day on top of vehicle (canagliflozin comparison)): −16±2 mmHg | Decrease in blood pressure (MAP) on top of vehicle, without empagliflozin ([9]; ACT-132577 30 mg/kg/day on top of vehicle (empagliflozin comparison)): −14±2 mmHg
